Test results from patent EP3228306A1, “COMPLEX COMPOUND COMPRISING OBETICHOLIC ACID AND CYCLODEXTRIN AND PHARMACEUTICAL FORMULATION COMPRISING THE COMPLEX COMPOUND” (ratiopharm GmbH, priority 2016, dated 2017).
In brackets after ≈: the same amount, converted by molar mass. Like-named read-outs stand apart in the source and are kept apart here.

Assays:
[1] = Solubility of OCA:CD complexes in physiologically relevant media; type: physicochemical; conditions: thermodynamic from solid, 37°C, complex corresponding to 20 mg obeticholic acid in 2 mL
Experimental: Obeticholic acid (OCA) or OCA: Cyclodextrin (CD) complex was weighed into a glass vial, followed by addition of 1 or 2 ml solvent (water, 0.01 N HCl, phosphate buffer pH 6.8 and FaSSIF). A stirring bar was added, the vial was fixed in a block heater at 37°C and the suspension was stirred with approx. 250 rpm. After 15 min and 1 h, samples were withdrawn, filtered through a 0.2 µm disposable filter, 100 µl of the clear filtrate were diluted with 900 µl acetonitrile (ACN):Water (1:1) and 1 µl thereof were analyzed by UHPLC/UV.
Solubilities of OCA:CD complexes were determined by stirring an amount of complex which corresponds to 20 mg of obeticholic acid (calculated from the known drug loads) in 2 mL of solvent for 15 min and 60 min at 37°C according to the method described above under "Analytical Methods". Solubility values are given in mg/ml.

[2] = reported in WO 2013/192097; measured in 0.1 N HCl after equilibration under stirring for one week at 25°C; cited from earlier work
[3] = Solubility of OCA in concentrated aqueous CD solutions (Experiment 2); type: physicochemical; conditions: stirred 60 h
Experimental: Variable amounts of solid OCA (left column of the Tables given below) were stirred in aqueous CD-solutions (14% (w/w) α-CD, 1.8% β-CD, 20% γ-CD, 20% HP-β-CD, 30% SB-β-CD, 30% RM-β-CD, and 40% HP-γ-CD) for 60 h. Aliquots were filtered through 0.2 µm disposable PTFE filters and the filtrates were analyzed by HPLC/UV. The concentration of OCA was determined based on a calibration curve which was established by twofold analysis of five calibration standards with 0.01 mg/mL to 1.0 mg/mL OCA.

[4] = cited from earlier work

- solubility at 15 min ([1]; 0.01 N HCl, pH 2.2, simulated gastric fluid, read-out: Solubility, 0.01 N HCl (pH 2.2), 15 min): < 10 µg/mL
- solubility at 60 min ([1]; 0.01 N HCl, pH 2.2, simulated gastric fluid, read-out: Solubility, 0.01 N HCl (pH 2.2), 60 min): < 10 µg/mL
- solubility at 15 min ([1]; 50 mM KH2PO4 phosphate buffer, pH 6.5, aqueous buffer, read-out: Solubility, 50 mM KH2PO4 (pH 6.5), 15 min): 110 µg/mL (≈ 262 µM)
- solubility at 60 min ([1]; 50 mM KH2PO4 phosphate buffer, pH 6.5, aqueous buffer, read-out: Solubility, 50 mM KH2PO4 (pH 6.5), 60 min): 110 µg/mL (≈ 262 µM)
- solubility at 15 min ([1]; FaSSIF, pH 6.5, fassif, Fasted State Simulated Intestinal Fluid, read-out: Solubility, FassiF* (pH 6.5), 15 min): 520 µg/mL (≈ 1240 µM)
- solubility at 60 min ([1]; FaSSIF, pH 6.5, fassif, Fasted State Simulated Intestinal Fluid, read-out: Solubility, FassiF* (pH 6.5), 60 min): 420 µg/mL (≈ 998 µM)
- solubility at 15 min ([1]; water, pH 7, water, read-out: Solubility, Water (pH 7), 15 min): < 10 µg/mL
- solubility at 60 min ([1]; water, pH 7, water, read-out: Solubility, Water (pH 7), 60 min): < 10 µg/mL
- dissolved OCA ([3]; HP-β-CD (20%) aqueous solution, OCA 10 mg/mL weighed): 9.425 mg/mL
- dissolved OCA ([3]; HP-β-CD (20%) aqueous solution, OCA 20 mg/mL weighed): 18.716 mg/mL
- dissolved OCA ([3]; HP-β-CD (20%) aqueous solution, OCA 40 mg/mL weighed): 37.499 mg/mL
- dissolved OCA ([3]; HP-β-CD (20%) aqueous solution, OCA 50 mg/mL weighed): 45.473 mg/mL
- dissolved OCA ([3]; HP-β-CD (20%) aqueous solution, OCA 60 mg/mL weighed): 45.785 mg/mL
- dissolved OCA ([3]; HP-γ-CD (40%) aqueous solution, OCA 10 mg/mL weighed): 8.704 mg/mL
- dissolved OCA ([3]; HP-γ-CD (40%) aqueous solution, OCA 20 mg/mL weighed): 18.095 mg/mL
- dissolved OCA ([3]; HP-γ-CD (40%) aqueous solution, OCA 40 mg/mL weighed): 35.632 mg/mL
- dissolved OCA ([3]; HP-γ-CD (40%) aqueous solution, OCA 80 mg/mL weighed): 62.989 mg/mL
- dissolved OCA ([3]; RM-β-CD (30%) aqueous solution, OCA 20 mg/mL weighed): 17.374 mg/mL
- dissolved OCA ([3]; RM-β-CD (30%) aqueous solution, OCA 40 mg/mL weighed): 37.316 mg/mL
- dissolved OCA ([3]; RM-β-CD (30%) aqueous solution, OCA 80 mg/mL weighed): 63.629 mg/mL
- dissolved OCA ([3]; RM-β-CD (30%) aqueous solution, OCA 160 mg/mL weighed): 78.693 mg/mL
- dissolved OCA ([3]; SB-β-CD (30%) aqueous solution, OCA 20 mg/mL weighed): 17.545 mg/mL
- dissolved OCA ([3]; SB-β-CD (30%) aqueous solution, OCA 40 mg/mL weighed): 38.735 mg/mL
- dissolved OCA ([3]; SB-β-CD (30%) aqueous solution, OCA 80 mg/mL weighed): 60.767 mg/mL
- dissolved OCA ([3]; SB-β-CD (30%) aqueous solution, OCA 160 mg/mL weighed): 57.080 mg/mL
- dissolved OCA ([3]; α-CD (14%) aqueous solution, OCA 5 mg/mL weighed): 4.614 mg/mL
- dissolved OCA ([3]; α-CD (14%) aqueous solution, OCA 10 mg/mL weighed): 6.154 mg/mL
- dissolved OCA ([3]; α-CD (14%) aqueous solution, OCA 20 mg/mL weighed): 6.937 mg/mL
- dissolved OCA ([3]; α-CD (14%) aqueous solution, OCA 40 mg/mL weighed): 7.141 mg/mL
- dissolved OCA ([3]; β-CD (1.8%) aqueous solution, OCA 2.5 mg/mL weighed): 2.229 mg/mL
- dissolved OCA ([3]; β-CD (1.8%) aqueous solution, OCA 5 mg/mL weighed): 4.312 mg/mL
- dissolved OCA ([3]; β-CD (1.8%) aqueous solution, OCA 10 mg/mL weighed): 4.830 mg/mL
- dissolved OCA ([3]; β-CD (1.8%) aqueous solution, OCA 20 mg/mL weighed): 4.880 mg/mL
- dissolved OCA ([3]; γ-CD (20%) aqueous solution, OCA 5 mg/mL weighed): 0.069 mg/mL
- dissolved OCA ([3]; γ-CD (20%) aqueous solution, OCA 10 mg/mL weighed): 0.069 mg/mL
- dissolved OCA ([3]; γ-CD (20%) aqueous solution, OCA 20 mg/mL weighed): 0.066 mg/mL
- dissolved OCA ([3]; γ-CD (20%) aqueous solution, OCA 40 mg/mL weighed): 0.055 mg/mL
SMILES: CC[C@H]1[C@@H](O)[C@@H]2[C@H](CC[C@]3(C)[C@@H]([C@H](C)CCC(=O)O)CC[C@@H]23)[C@@]2(C)CC[C@@H](O)C[C@@H]12 [OCA, 6α-ethyl-chenodeoxycholic acid]
- water solubility [2]: 7.5 µg/mL (≈ 17.8 µM)
- thermodynamic pKa [4]: about 5
